From PubChem BioAssay (NCI)
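How tested: cells in 96-well plates exposed to compound for 48 hours at five concentrations. At the GI50, growth is halved. TGI: concentration producing complete growth inhibition.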

Key:
Experiment in all cases: NCI-60 cell line screen, 48 h
RPMI-8226 leukemia = tested on: RPMI-8226 leukemia
SNB-19 CNS = tested on: SNB-19 CNS
HCC-2998 colon = tested on: HCC-2998 colon
UACC-257 melanoma = tested on: UACC-257 melanoma
MALME-3M melanoma = tested on: MALME-3M melanoma
MDA-MB-231 breast = tested on: MDA-MB-231 breast
HOP-62 NSCLC = tested on: HOP-62 NSCLC
TK-10 renal = tested on: TK-10 renal
IGROV1 ovarian = tested on: IGROV1 ovarian
786-0 renal = tested on: 786-0 renal
LOX IMVI melanoma = tested on: LOX IMVI melanoma
M14 melanoma = tested on: M14 melanoma
OVCAR-3 ovarian = tested on: OVCAR-3 ovarian
EKVX NSCLC = tested on: EKVX NSCLC
UO-31 renal = tested on: UO-31 renal
A498 renal = tested on: A498 renal
NCI-H23 lung = tested on: NCI-H23 lung
SW-620 colon = tested on: SW-620 colon
MDA-MB-435 = tested on: MDA-MB-435
HL-60(TB) leukemia = tested on: HL-60(TB) leukemia
A549 NSCLC = tested on: A549 NSCLC
DU-145 prostate = tested on: DU-145 prostate
SK-OV-3 ovarian = tested on: SK-OV-3 ovarian
MCF7 breast = tested on: MCF7 breast
MOLT-4 leukemia = tested on: MOLT-4 leukemia
ACHN renal = tested on: ACHN renal
NCI-H522 lung = tested on: NCI-H522 lung
MDA-MB-468 breast = tested on: MDA-MB-468 breast
HS 578T breast = tested on: HS 578T breast
SK-MEL-28 melanoma = tested on: SK-MEL-28 melanoma
CAKI-1 renal = tested on: CAKI-1 renal
CCRF-CEM leukemia = tested on: CCRF-CEM leukemia
SF-295 CNS = tested on: SF-295 CNS
SN12C renal = tested on: SN12C renal
HOP-92 NSCLC = tested on: HOP-92 NSCLC
U251 CNS = tested on: U251 CNS
OVCAR-4 ovarian = tested on: OVCAR-4 ovarian
NCI-H226 lung = tested on: NCI-H226 lung
T-47D breast = tested on: T-47D breast
RXF 393 renal = tested on: RXF 393 renal
UACC-62 melanoma = tested on: UACC-62 melanoma
HCT-116 colon = tested on: HCT-116 colon
HT29 colon = tested on: HT29 colon
SR leukemia = tested on: SR leukemia
NCI-H460 lung = tested on: NCI-H460 lung
SNB-75 CNS = tested on: SNB-75 CNS
NCI/ADR-RES ovarian = tested on: NCI/ADR-RES ovarian
COLO 205 colon = tested on: COLO 205 colon
K-562 leukemia = tested on: K-562 leukemia
SK-MEL-5 melanoma = tested on: SK-MEL-5 melanoma
SF-268 CNS = tested on: SF-268 CNS
OVCAR-8 ovarian = tested on: OVCAR-8 ovarian
PC-3 prostate = tested on: PC-3 prostate
SF-539 CNS = tested on: SF-539 CNS
HCT-15 colon = tested on: HCT-15 colon
SK-MEL-2 melanoma = tested on: SK-MEL-2 melanoma
KM12 colon = tested on: KM12 colon
BT-549 breast = tested on: BT-549 breast
OVCAR-5 ovarian = tested on: OVCAR-5 ovarian

Structure (SMILES): N#Cc1c(NC(=O)c2ccc(C(F)(F)F)c(Cl)c2)sc2c1CCC(=O)C2
- GI50 (RPMI-8226 leukemia): 0.214 µM
- TGI (RPMI-8226 leukemia): 0.736 µM
- GI50 (SNB-19 CNS): 1.67 µM
- TGI (SNB-19 CNS): 4.35 µM
- GI50 (HCC-2998 colon): 1.67 µM
- TGI (HCC-2998 colon): 3.35 µM
- GI50 (UACC-257 melanoma): 1.7 µM
- TGI (UACC-257 melanoma): 4.35 µM
- GI50 (MALME-3M melanoma): 1.26 µM
- TGI (MALME-3M melanoma): 3.15 µM
- GI50 (MDA-MB-231 breast): 1.46 µM
- TGI (MDA-MB-231 breast): 3 µM
- GI50 (HOP-62 NSCLC): 2.16 µM
- TGI (HOP-62 NSCLC): 6.05 µM
- GI50 (TK-10 renal): 2.28 µM
- TGI (TK-10 renal): 7.43 µM
- GI50 (IGROV1 ovarian): 1.52 µM
- TGI (IGROV1 ovarian): 3.07 µM
- GI50 (786-0 renal): 1.85 µM
- TGI (786-0 renal): 5.53 µM
- GI50 (LOX IMVI melanoma): 0.561 µM
- TGI (LOX IMVI melanoma): 2.04 µM
- GI50 (M14 melanoma): 0.922 µM
- TGI (M14 melanoma): 2.69 µM
- GI50 (OVCAR-3 ovarian): 1.43 µM
- TGI (OVCAR-3 ovarian): 2.99 µM
- GI50 (EKVX NSCLC): 1.9 µM
- TGI (EKVX NSCLC): 4.92 µM
- GI50 (UO-31 renal): 0.479 µM
- TGI (UO-31 renal): 1.71 µM
- GI50 (A498 renal): 12.6 µM
- TGI (A498 renal): 34.9 µM
- GI50 (NCI-H23 lung): 1.03 µM
- TGI (NCI-H23 lung): 3.01 µM
- GI50 (SW-620 colon): 0.4 µM
- TGI (SW-620 colon): 1.79 µM
- GI50 (MDA-MB-435): 1.6 µM
- TGI (MDA-MB-435): 3.08 µM
- GI50 (HL-60(TB) leukemia): 1.16 µM
- TGI (HL-60(TB) leukemia): 5.39 µM
- GI50 (A549 NSCLC): 2.44 µM
- TGI (A549 NSCLC): 7.66 µM
- GI50 (DU-145 prostate): 3.93 µM
- TGI (DU-145 prostate): 18.3 µM
- GI50 (SK-OV-3 ovarian): 2.12 µM
- TGI (SK-OV-3 ovarian): 5.92 µM
- GI50 (MCF7 breast): 1.47 µM
- TGI (MCF7 breast): 7.5 µM
- GI50 (MOLT-4 leukemia): 0.568 µM
- TGI (MOLT-4 leukemia): 6.26 µM
- GI50 (ACHN renal): 0.692 µM
- TGI (ACHN renal): 1.86 µM
- GI50 (NCI-H522 lung): 0.346 µM
- TGI (NCI-H522 lung): 1.35 µM
- GI50 (MDA-MB-468 breast): 0.416 µM
- TGI (MDA-MB-468 breast): 1.49 µM
- GI50 (HS 578T breast): 0.891 µM
- TGI (HS 578T breast): 3.49 µM
- GI50 (SK-MEL-28 melanoma): 1.08 µM
- TGI (SK-MEL-28 melanoma): 2.57 µM
- GI50 (CAKI-1 renal): 0.725 µM
- TGI (CAKI-1 renal): 2.12 µM
- GI50 (CCRF-CEM leukemia): 0.334 µM
- TGI (CCRF-CEM leukemia): 3.53 µM
- GI50 (SF-295 CNS): 1.63 µM
- TGI (SF-295 CNS): 3.41 µM
- GI50 (SN12C renal): 0.923 µM
- TGI (SN12C renal): 2.74 µM
- GI50 (HOP-92 NSCLC): 1.19 µM
- TGI (HOP-92 NSCLC): 3.24 µM
- GI50 (U251 CNS): 0.76 µM
- TGI (U251 CNS): 2.07 µM
- GI50 (OVCAR-4 ovarian): 1.32 µM
- TGI (OVCAR-4 ovarian): 2.86 µM
- GI50 (NCI-H226 lung): 2.59 µM
- TGI (NCI-H226 lung): 8.6 µM
- GI50 (T-47D breast): 0.599 µM
- TGI (T-47D breast): 2.96 µM
- GI50 (RXF 393 renal): 0.618 µM
- TGI (RXF 393 renal): 1.95 µM
- GI50 (UACC-62 melanoma): 1.23 µM
- TGI (UACC-62 melanoma): 2.66 µM
- GI50 (HCT-116 colon): 0.371 µM
- TGI (HCT-116 colon): 1.43 µM
- GI50 (HT29 colon): 0.943 µM
- TGI (HT29 colon): 3.53 µM
- GI50 (SR leukemia): 0.399 µM
- TGI (SR leukemia): 10.3 µM
- GI50 (NCI-H460 lung): 2.72 µM
- TGI (NCI-H460 lung): 8.9 µM
- GI50 (SNB-75 CNS): 1.35 µM
- TGI (SNB-75 CNS): 3.38 µM
- GI50 (NCI/ADR-RES ovarian): 1.6 µM
- TGI (NCI/ADR-RES ovarian): 4.19 µM
- GI50 (COLO 205 colon): 1.17 µM
- TGI (COLO 205 colon): 2.61 µM
- GI50 (K-562 leukemia): 0.336 µM
- TGI (K-562 leukemia): 5.22 µM
- GI50 (SK-MEL-5 melanoma): 1.58 µM
- TGI (SK-MEL-5 melanoma): 2.97 µM
- GI50 (SF-268 CNS): 1.78 µM
- TGI (SF-268 CNS): 5.37 µM
- GI50 (OVCAR-8 ovarian): 1.38 µM
- TGI (OVCAR-8 ovarian): 3.48 µM
- GI50 (PC-3 prostate): 0.448 µM
- TGI (PC-3 prostate): 3.23 µM
- GI50 (SF-539 CNS): 0.514 µM
- TGI (SF-539 CNS): 1.65 µM
- GI50 (HCT-15 colon): 0.963 µM
- TGI (HCT-15 colon): 2.86 µM
- GI50 (SK-MEL-2 melanoma): 1.94 µM
- TGI (SK-MEL-2 melanoma): 4.38 µM
- GI50 (KM12 colon): 1.14 µM
- TGI (KM12 colon): 3.53 µM
- GI50 (BT-549 breast): 0.365 µM
- TGI (BT-549 breast): 1.41 µM
- GI50 (OVCAR-5 ovarian): 1.83 µM
- TGI (OVCAR-5 ovarian): 3.87 µM
